In US20070010671A1, “Novel quinazoline derivatives and methods of treatment related to the use thereof” (priority 2003, published 2007) one finds IC50 data, which are given here for 40 compounds.

Structures are written as SMILES.

This assay concerns the target MCH receptor (Homo sapiens, UniProt Q99705). Briefly: High throughput functional screening FLIPR/FDSS6000: inhibition of MCH-evoked intracellular Ca2+ changes. The conditions noted are these: class by percent of control at 10^-7 M or by IC50; read-out: class. Format: cell-based. In outline: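 Fluo4 fluorescence (Ex 488 nm, Em 530 nm) tracked MCH-evoked [Ca2+]i transients over 290 s by FLIPR or FDSS. Cells carried a constitutively active, non-endogenous receptor version. Compounds were added 3 min before a 50 nM MCH challenge.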

Take `CN(C)c1nc(N[C@H]2CC[C@@H](NC(=O)Nc3cc([N+](=O)[O-])ccc3F)CC2)nc2ccccc12` [compound 99]: the IC50 was > 200 nM.

Consider `CN(C)c1nc(N[C@H]2CC[C@@H](NC(=O)NCc3ccccc3F)CC2)nc2ccccc12` [compound 100, N-(cis-4-{[4-(dimethylamino)quinazolin-2-yl]amino}cyclohexyl)-N′-(2-fluorobenzyl)urea], for which the IC50 is < 50 nM.

As to `CN(C)c1nc(N[C@H]2CC[C@@H](NC(=O)Nc3ccccc3I)CC2)nc2ccccc12` [compound 101, N-(cis-4-{[4-(dimethylamino)quinazolin-2-yl]amino}cyclohexyl)-N′-(2-iodophenyl)urea], the IC50 is < 50 nM.

In the case of `Cc1cccc(C(C)C)c1NC(=O)N[C@H]1CC[C@@H](Nc2nc(N(C)C)c3ccccc3n2)CC1` [compound 102, N-(cis-4-{[4-(dimethylamino)quinazolin-2-yl]amino}cyclohexyl)-N′-(2-isopropyl-6-methylphenyl)urea], the IC50 was < 50 nM.

Take `CC(C)c1ccccc1NC(=O)N[C@H]1CC[C@@H](Nc2nc(N(C)C)c3ccccc3n2)CC1` [compound 103, N-(cis-4-{[4-(dimethylamino)quinazolin-2-yl]amino}cyclohexyl)-N′-(2-isopropylphenyl)urea]: the IC50 is < 50 nM.

Consider `COc1cc([N+](=O)[O-])ccc1NC(=O)N[C@H]1CC[C@@H](Nc2nc(N(C)C)c3ccccc3n2)CC1` [compound 104, N-(cis-4-{[4-(dimethylamino)quinazolin-2-yl]amino}cyclohexyl)-N′-(2-methoxy-4-nitrophenyl)urea], for which the IC50 lay in the range of 50 to 200 nM.

Regarding `COc1ccc(C)cc1NC(=O)N[C@H]1CC[C@@H](Nc2nc(N(C)C)c3ccccc3n2)CC1` [compound 105, N-(cis-4-{[4-(dimethylamino)quinazolin-2-yl]amino}cyclohexyl)-N′-(2-methoxy-5-methylphenyl)urea], the IC50 is 50 to 200 nM.

For `COc1ccc([N+](=O)[O-])cc1NC(=O)N[C@H]1CC[C@@H](Nc2nc(N(C)C)c3ccccc3n2)CC1` [compound 106], the IC50 was > 200 nM.

`Cc1c(NC(=O)N[C@H]2CC[C@@H](Nc3nc(N(C)C)c4ccccc4n3)CC2)cccc1[N+](=O)[O-]` [compound 107, N-(cis-4-{[4-(dimethylamino)quinazolin-2-yl]amino}cyclohexyl)-N′-(2-methyl-3-nitrophenyl)urea]: the IC50 was < 50 nM.

`Cc1cc([N+](=O)[O-])ccc1NC(=O)N[C@H]1CC[C@@H](Nc2nc(N(C)C)c3ccccc3n2)CC1` [compound 108, N-(cis-4-{[4-(dimethylamino)quinazolin-2-yl]amino}cyclohexyl)-N′-(2-methyl-4-nitrophenyl)urea]: the IC50 was < 50 nM.

`Cc1ccc([N+](=O)[O-])cc1NC(=O)N[C@H]1CC[C@@H](Nc2nc(N(C)C)c3ccccc3n2)CC1` [compound 109, N-(cis-4-{[4-(dimethylamino)quinazolin-2-yl]amino}cyclohexyl)-N′-(2-methyl-5-nitrophenyl)urea]: the IC50 is < 50 nM.

On to `Cc1cccc([N+](=O)[O-])c1NC(=O)N[C@H]1CC[C@@H](Nc2nc(N(C)C)c3ccccc3n2)CC1` [compound 110], for which the IC50 was > 200 nM.

Consider `Cc1ccccc1CNC(=O)N[C@H]1CC[C@@H](Nc2nc(N(C)C)c3ccccc3n2)CC1` [compound 111, N-(cis-4-{[4-(dimethylamino)quinazolin-2-yl]amino}cyclohexyl)-N′-(2-methylbenzyl)urea], for which the IC50 was < 50 nM.

For `CN(C)c1nc(N[C@H]2CC[C@@H](NC(=O)Nc3ccc4ccccc4c3)CC2)nc2ccccc12` [compound 112], the IC50 is > 200 nM.

On to `CN(C)c1nc(N[C@H]2CC[C@@H](NC(=O)Nc3ccccc3[N+](=O)[O-])CC2)nc2ccccc12` [compound 113, N-(cis-4-{[4-(dimethylamino)quinazolin-2-yl]amino}cyclohexyl)-N′-(2-nitrophenyl)urea], for which the IC50 was < 50 nM.

For the compound `CCCc1ccccc1NC(=O)N[C@H]1CC[C@@H](Nc2nc(N(C)C)c3ccccc3n2)CC1` [compound 114, N-(cis-4-{[4-(dimethylamino)quinazolin-2-yl]amino}cyclohexyl)-N′-(2-propylphenyl)urea], the IC50 is < 50 nM.

For `CN(C)c1nc(N[C@H]2CC[C@@H](NC(=O)Nc3ccccc3Oc3ccccc3)CC2)nc2ccccc12` [compound 115, N-(cis-4-{[4-(dimethylamino)quinazolin-2-yl]amino}cyclohexyl)-N′-(2-phenoxyphenyl)urea], the IC50 lay in the range of 50 to 200 nM.

Take `Cc1cccc(C(C)(C)C)c1NC(=O)N[C@H]1CC[C@@H](Nc2nc(N(C)C)c3ccccc3n2)CC1` [compound 116, N-(2-tert-butyl-6-methylphenyl)-N′-(cis-4-{[4-(dimethylamino)quinazolin-2-yl]amino}cyclohexyl)urea]: the IC50 is < 50 nM.

On to `CN(C)c1nc(N[C@H]2CC[C@@H](NC(=O)Nc3ccccc3C(C)(C)C)CC2)nc2ccccc12` [compound 117, N-(2-tert-butylphenyl)-N′-(cis-4-{[4-(dimethylamino)quinazolin-2-yl]amino}cyclohexyl)urea], for which the IC50 was < 50 nM.

Turning to `CSc1cccc(NC(=O)N[C@H]2CC[C@@H](Nc3nc(N(C)C)c4ccccc4n3)CC2)c1` [compound 118], the IC50 was in the range of 50 to 200 nM.

On to `CN(C)c1nc(N[C@H]2CC[C@@H](NC(=O)Nc3cccc(SC(F)(F)F)c3)CC2)nc2ccccc12` [compound 119], for which the IC50 is > 200 nM.

`CN(C)c1nc(N[C@H]2CC[C@@H](NC(=O)Nc3ccc4c(c3)OCO4)CC2)nc2ccccc12` [compound 120, N-1,3-benzodioxol-5-yl-N′-(cis-4-{[4-(dimethylamino)quinazolin-2-yl]amino}cyclohexyl)urea]: the IC50 is < 50 nM.

Regarding `COc1cc(NC(=O)N[C@H]2CC[C@@H](Nc3nc(N(C)C)c4ccccc4n3)CC2)cc(OC)c1OC` [compound 121, N-(cis-4-{[4-(dimethylamino)quinazolin-2-yl]amino}cyclohexyl)-N′-(3,4,5-trimethoxyphenyl)urea], the IC50 was < 50 nM.

Regarding `CN(C)c1nc(N[C@H]2CC[C@@H](NC(=O)NCc3ccc(Cl)c(Cl)c3)CC2)nc2ccccc12` [compound 122, N-(3,4-dichlorobenzyl)-N′-(cis-4-{[4-(dimethylamino)quinazolin-2-yl]amino}cyclohexyl)urea], the IC50 lay within 50 to 200 nM.

Turning to `CN(C)c1nc(N[C@H]2CC[C@@H](NC(=O)Nc3ccc(F)c(F)c3)CC2)nc2ccccc12` [compound 123, N-(3,4-difluorophenyl)-N′-(cis-4-{[4-(dimethylamino)quinazolin-2-yl]amino}cyclohexyl)urea], the IC50 was in the range of 50 to 200 nM.

`COc1ccc(NC(=O)N[C@H]2CC[C@@H](Nc3nc(N(C)C)c4ccccc4n3)CC2)cc1OC` [compound 124, N-(3,4-dimethoxyphenyl)-N′-(cis-4-{[4-(dimethylamino)quinazolin-2-yl]amino}cyclohexyl)urea]: the IC50 was < 50 nM.

On to `CN(C)c1nc(N[C@H]2CC[C@@H](NC(=O)Nc3cc(F)cc(F)c3)CC2)nc2ccccc12` [compound 125, N-(3,5-difluorophenyl)-N′-(cis-4-{[4-(dimethylamino)quinazolin-2-yl]amino}cyclohexyl)urea], for which the IC50 was 50 to 200 nM.

With `COc1cc(NC(=O)N[C@H]2CC[C@@H](Nc3nc(N(C)C)c4ccccc4n3)CC2)cc(OC)c1` [compound 126], the IC50 lay within 50 to 200 nM.

On to `Cc1cc(C)cc(NC(=O)N[C@H]2CC[C@@H](Nc3nc(N(C)C)c4ccccc4n3)CC2)c1` [compound 127, N-(cis-4-{[4-(dimethylamino)quinazolin-2-yl]amino}cyclohexyl)-N′-(3,5-dimethylphenyl)urea], for which the IC50 was 50 to 200 nM.

Consider `COC(=O)c1cccc(NC(=O)N[C@H]2CC[C@@H](Nc3nc(N(C)C)c4ccccc4n3)CC2)c1` [compound 128, methyl 3-({[(cis-4-{[4-(dimethylamino)quinazolin-2-yl]amino}cyclohexyl)amino]carbonyl}amino)benzoate], for which the IC50 lay in the range of 50 to 200 nM.

Consider `Cc1c(Cl)cccc1NC(=O)N[C@H]1CC[C@@H](Nc2nc(N(C)C)c3ccccc3n2)CC1` [compound 129], for which the IC50 was < 50 nM.

Consider `CN(C)c1nc(N[C@H]2CC[C@@H](NC(=O)Nc3ccc(F)c(Cl)c3)CC2)nc2ccccc12` [compound 130], for which the IC50 was 50 to 200 nM.

In the case of `COc1ccc(NC(=O)N[C@H]2CC[C@@H](Nc3nc(N(C)C)c4ccccc4n3)CC2)cc1Cl` [compound 131, N-(3-chloro-4-methoxyphenyl)-N′-(cis-4-{[4-(dimethylamino)quinazolin-2-yl]amino}cyclohexyl)urea], the IC50 was < 50 nM.

`CCc1cccc(NC(=O)N[C@H]2CC[C@@H](Nc3nc(N(C)C)c4ccccc4n3)CC2)c1` [compound 132, N-(cis-4-{[4-(dimethylamino)quinazolin-2-yl]amino}cyclohexyl)-N′-(3-ethylphenyl)urea]: the IC50 was 50 to 200 nM.

As for `CN(C)c1nc(N[C@H]2CC[C@@H](NC(=O)Nc3cc(F)cc(C(F)(F)F)c3)CC2)nc2ccccc12` [compound 133], the IC50 is > 200 nM.

For the compound `CN(C)c1nc(N[C@H]2CC[C@@H](NC(=O)NCc3cccc(F)c3)CC2)nc2ccccc12` [compound 134, N-(cis-4-{[4-(dimethylamino)quinazolin-2-yl]amino}cyclohexyl)-N′-(3-fluorobenzyl)urea], the IC50 fell in the range of 50 to 200 nM.

For `CN(C)c1nc(N[C@H]2CC[C@@H](NC(=O)Nc3cccc([N+](=O)[O-])c3)CC2)nc2ccccc12` [compound 135], the IC50 is > 200 nM.

As to `CN(C)c1nc(N[C@H]2CC[C@@H](NC(=O)Nc3ccc(C(F)(F)F)cc3)CC2)nc2ccccc12` [compound 136], the IC50 was > 200 nM.

With `CN(C)c1nc(N[C@H]2CC[C@@H](NC(=O)Nc3ccc(SC(F)(F)F)cc3)CC2)nc2ccccc12` [compound 137], the IC50 was > 200 nM.

On to `Cc1cc(NC(=O)N[C@H]2CC[C@@H](Nc3nc(N(C)C)c4ccccc4n3)CC2)c([N+](=O)[O-])cc1C` [compound 138], for which the IC50 was > 200 nM.
